# Measured values published in patent US20050214870A1, “Assay” (priority 2001, published 2005).
# Assays:
# [1] = cited from earlier work
# human HERG K+ channel [2] = target: T1, human HERG K+ channel (Homo sapiens, UniProt Q12809)
# Description: (§1) Adherent HEK293 cells expressing human HERG, were grown in MEM Earles medium (Life Technologies) supplemented with 10% foetal calf serum (PAA Laboratories), 2 mM L-glutamine (Sigma), 1 mM sodium pyruvate (Sigma), 0.4 mg/ml G418 (Life Technologies) and an addition of 1× non-essential amino acids (Life Technologies). The cells were grown at 37° C. in a humidified atmosphere with 5% CO2 in T225 cm^3 flasks.
# (§2) All cells were pelleted, washed twice with PBS and snap-frozen on dry ice prior to storage at −80° C. until required.
# (§3) Cell membrane fractions were prepared from frozen aliquots of cells. All procedures were carried out at 4° C. unless otherwise stated. Frozen aliquots of cells were thawed at room temperature and resuspended in homogenisation buffer (50 mM Tris base, 10 mM KCl, 1-1.2 mM MgCl2, pH 7.4). The cells were then disrupted by homogenisation in an Omni LabTek homogeniser at 20,000 rpm for 30 seconds. The homogenate was centrifuged for 20 minutes at 48,000×g (4° C., Sorvall RC5B centrifuge) and the supernatant removed. […] Protein content was determined using a Coomassie Blue based protein assay kit. […]
# The scintillation proximity assay (SPA) was carried out under identical buffer conditions to those used in the filtration assay. […] Beads were allowed to settle for a minimum of 30 minutes before plates were counted for retained radioactivity on a TopCount NTX scintillation counter.
# human HERG K+ channel [3] = target: T1, human HERG K+ channel; remark: listed apart in the source
# Description: as §1, §2, §3
# In each experiment, triplicate assays were routinely performed and the data were averaged. Specific binding was analysed by nonliiear regression fit using GraphPad Prism software (GraphPad, San Diego). […]
# T1 sequence (Q12809 whole entry): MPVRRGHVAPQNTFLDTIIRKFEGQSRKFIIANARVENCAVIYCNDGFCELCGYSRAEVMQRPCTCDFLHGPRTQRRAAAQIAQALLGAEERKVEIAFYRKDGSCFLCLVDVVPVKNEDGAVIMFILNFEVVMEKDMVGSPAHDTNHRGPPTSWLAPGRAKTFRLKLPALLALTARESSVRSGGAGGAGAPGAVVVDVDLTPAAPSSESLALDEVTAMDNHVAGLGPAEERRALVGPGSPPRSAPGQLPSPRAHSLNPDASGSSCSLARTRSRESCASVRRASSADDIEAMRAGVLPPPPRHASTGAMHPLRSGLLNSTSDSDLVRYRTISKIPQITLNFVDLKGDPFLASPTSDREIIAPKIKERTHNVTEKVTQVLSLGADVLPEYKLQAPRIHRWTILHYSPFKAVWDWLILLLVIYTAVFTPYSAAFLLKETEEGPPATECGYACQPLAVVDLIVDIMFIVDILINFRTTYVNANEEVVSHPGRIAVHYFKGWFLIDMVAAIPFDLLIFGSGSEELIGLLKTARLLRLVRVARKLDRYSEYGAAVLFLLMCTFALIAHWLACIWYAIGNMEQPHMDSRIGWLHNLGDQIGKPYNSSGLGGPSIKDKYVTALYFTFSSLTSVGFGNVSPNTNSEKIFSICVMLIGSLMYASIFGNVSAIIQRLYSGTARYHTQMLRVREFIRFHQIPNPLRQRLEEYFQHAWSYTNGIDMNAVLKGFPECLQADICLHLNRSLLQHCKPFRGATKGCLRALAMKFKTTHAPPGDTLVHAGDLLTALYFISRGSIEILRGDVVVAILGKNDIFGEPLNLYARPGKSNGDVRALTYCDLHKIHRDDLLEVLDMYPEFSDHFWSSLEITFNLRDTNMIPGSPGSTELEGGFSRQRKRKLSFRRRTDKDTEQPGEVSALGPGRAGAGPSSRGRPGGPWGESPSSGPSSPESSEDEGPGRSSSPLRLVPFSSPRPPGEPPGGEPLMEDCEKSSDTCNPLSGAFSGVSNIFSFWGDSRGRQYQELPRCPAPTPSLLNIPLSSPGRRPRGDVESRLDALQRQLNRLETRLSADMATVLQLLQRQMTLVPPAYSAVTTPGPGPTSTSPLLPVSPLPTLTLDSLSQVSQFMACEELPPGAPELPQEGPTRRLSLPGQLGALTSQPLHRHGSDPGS
SMILES,effect on QT interval of the electrocardiogram in man [1],SPA 96 pKi (human HERG K+ channel [2]),SPA 384 pKi (human HERG K+ channel [2]),Filter binding pKi (human HERG K+ channel [3])
COc1cc(N)c(Cl)cc1C(=O)NC1CCN(CCCOc2ccc(F)cc2)CC1OC (stereo not shown) [Cisapride],prolong the QT interval,,,
CC(C)NC[C@@H](O)c1ccc(NS(C)(=O)=O)cc1 [D-Sotalol],,<5,<5,<5
